Literature values as cited in PMC2930141 (Biochimica et biophysica acta, 2010).

How the values were obtained:
[1] = aqueous
[2] = test system: hCA II
[3] = molecular target: human carbonic anhydrase I (hCA I) (Homo sapiens, UniProt P00915)
[4] = test system: hCA I; conditions: bound to hCA I

Chain of human carbonic anhydrase I (hCA I) (P00915 whole entry): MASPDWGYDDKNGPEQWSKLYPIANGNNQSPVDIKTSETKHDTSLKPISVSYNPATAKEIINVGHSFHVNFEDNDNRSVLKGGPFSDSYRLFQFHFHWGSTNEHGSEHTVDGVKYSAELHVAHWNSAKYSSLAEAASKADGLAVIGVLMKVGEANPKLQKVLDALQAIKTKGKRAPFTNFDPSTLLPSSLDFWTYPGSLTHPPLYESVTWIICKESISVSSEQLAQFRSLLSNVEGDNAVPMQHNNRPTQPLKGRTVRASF

SMILES | pKa of sulfonamide group [1] | pKa from pH dependent binding affinity [2] | emission maximum of the enzyme-bound fluorophore [3] | pKa from pH dependent binding affinity [4]
NS(=O)(=O)c1ccccc1 [benzenesulfonamide] | 9.79 |  |  | 
CN(C)c1cccc2c(S(N)(=O)=O)cccc12 [dansylamide, 5-dimethylamino-1-naphthalene sulfonamide] |  | 6.4 | 458 nm | 6.3
